Data reported in PubChem BioAssay (NCI).
Several values for one entry are separate records, joined by “and”; a condition that tells them apart may be missing. Identical values can stand only once.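 Briefly, cells in 96-well plates were exposed to five compound concentrations for 48 h, and endpoints were estimated by linear interpolation. GI50 marks 50% less growth. Definition used: TGI = concentration required for complete inhibition of growth.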

Key:
Assay in all cases: DTP human tumour cell line panel, 48 h
[1] = system: MALME-3M melanoma
[2] = system: UACC-62 melanoma
[3] = system: SK-MEL-5 melanoma
[4] = system: ACHN renal
[5] = system: UO-31 renal
[6] = system: SW-620 colon
[7] = system: A549 NSCLC
[8] = system: SK-OV-3 ovarian
[9] = system: M14 melanoma
[10] = system: MCF7 breast

| SMILES | TGI [1] | TGI [2] | TGI [3] | TGI [4] | TGI [5] | TGI [6] | TGI [7] | TGI [8] | TGI [9] | TGI [10] | GI50 [2] | GI50 [3] | GI50 [10] | GI50 [4] | GI50 [5] | GI50 [6] | GI50 [7] | GI50 [8] | GI50 [9] | GI50 [1] |
| --- | --- | --- | --- | --- | --- | --- | --- | --- | --- | --- | --- | --- | --- | --- | --- | --- | --- | --- | --- | --- |
| CS/C(C)=N/OC(=O)NCCCCNc1ccc(N=[N+]=[N-])cc1 | > 100 µM | 89.4 µM | 38.6 µM | 97.2 µM | 82.4 µM | > 100 µM | > 100 µM | > 100 µM | > 100 µM |  |  |  |  |  |  |  |  |  |  |  |
| COc1cccc2nc3cc(C)c(C)cc3nc12 | > 100 µM | > 100 µM | > 100 µM | > 100 µM | > 100 µM | > 100 µM | > 100 µM | > 100 µM | > 100 µM |  |  |  |  |  |  |  |  |  |  |  |
| CCOC(=O)c1nc(-c2ccccc2)oc1OCC |  | > 100 µM | > 100 µM |  |  | > 100 µM | > 100 µM | > 100 µM | > 100 µM |  |  |  |  |  |  |  |  |  |  |  |
| O=c1[nH]c(-c2ccc(-c3nc4cc([N+](=O)[O-])ccc4c(=O)[nH]3)cc2)nc2cc([N+](=O)[O-])ccc12 | > 100 µM | > 100 µM | > 100 µM | > 100 µM | > 100 µM | > 100 µM | > 100 µM | > 100 µM | > 100 µM |  |  |  |  |  |  |  |  |  |  |  |
| O=C1CCC2(c3ccccc3)Nc3ncccc3N12 (stereo unspecified) | > 100 µM | > 100 µM | > 100 µM | > 100 µM | > 100 µM | > 100 µM | > 100 µM | > 100 µM | > 100 µM |  |  |  |  |  |  |  |  |  |  |  |
| O=C(Nc1nc(=S)c2c(ncn2CCO)[nH]1)c1ccccc1 | > 100 µM | > 100 µM | > 100 µM | > 100 µM | > 100 µM | > 100 µM | > 100 µM | > 100 µM | > 100 µM |  |  |  |  |  |  |  |  |  |  |  |
| CC(=O)Nc1ccc(/C=C/C(=O)c2sc(-c3nc(C)c(C(=O)/C=C/c4ccc(NC(C)=O)cc4)s3)nc2C)cc1 | > 100 µM | > 100 µM |  | > 100 µM | > 100 µM | > 100 µM | > 100 µM | > 100 µM | > 100 µM |  |  |  |  |  |  |  |  |  |  |  |
| CC12CC(OC(=O)[C@]1(C)O)[C@@H]([C@]1(O)CC[C@H]3[C@@H]4C[C@H]5O[C@]56[C@@H](O)C=CC(=O)[C@]6(C)[C@H]4CC[C@@]31C)C2 (stereo partly specified) |  | 37.2 µM | 17.8 µM | 22.9 µM | 16.8 µM | 12.4 µM | > 100 µM | > 100 µM | 24.9 µM | 17.2 µM |  |  |  |  |  |  |  |  |  |  |
| CCOC(=O)c1nc(Nc2ccc(Cl)cc2)c2ccccc2n1 |  | 20.5 µM | 13.8 µM | 19.2 µM | 18.8 µM | > 50 µM | 26.2 µM | 24 µM | 30.6 µM | > 50 µM | 10 µM | 7.19 µM | 13.6 µM | 9.3 µM | 8.87 µM | 17.2 µM | 11.3 µM | 10.6 µM | 12.4 µM |  |
| O=C1NC2C=CN(Cc3ccccc3)C=C2C(=O)N2CCCC12 (stereo unspecified) | > 100 µM | > 100 µM | > 100 µM | > 100 µM | > 100 µM | > 100 µM | > 100 µM | > 100 µM | > 100 µM |  |  |  |  |  |  |  |  |  |  |  |
| C=CC1C(OC2OC(CO)C(O)C(O)C2O)OC=C(C(=O)OC)C1CC=O (stereo unspecified) | > 100 µM | > 100 µM | > 100 µM | > 100 µM | > 100 µM | > 100 µM | > 100 µM | > 100 µM | > 100 µM |  |  |  |  |  |  |  |  |  |  |  |
| C=CCNC(=O)NCCCC(NC(C)=O)C(=O)NCc1ccccc1 (stereo unspecified) | > 100 µM | > 100 µM | > 100 µM | > 100 µM | > 100 µM | > 100 µM | > 100 µM | > 100 µM | > 100 µM |  |  |  |  |  |  |  |  |  |  |  |
| Cc1c(Cl)cccc1NC1=C(Cl)C(=O)N(Cc2ccccc2)C1=O |  | 19.7 µM | 23.9 µM | 8.92 µM | 24.4 µM |  | 29.6 µM | 30.2 µM | 22 µM | 59 µM | 6.15 µM | 11.7 µM | 25.3 µM | 1.29 µM | 6.96 µM |  | 12 µM | 14.7 µM | 10.2 µM |  |
| COC(=O)c1cc(-c2cccn2C)c2c(c1C(=O)OC)c1ccccc1n2C | > 100 µM | > 100 µM | > 100 µM | > 100 µM | > 100 µM | > 100 µM | > 100 µM | > 100 µM | > 100 µM |  |  |  |  |  |  |  |  |  |  |  |
| CS/C(=N\c1nccs1)NC(=O)c1cccc(Cl)c1 | > 100 µM | > 100 µM | > 100 µM | > 100 µM | > 100 µM | > 100 µM | > 100 µM | > 100 µM | > 100 µM |  |  |  |  |  |  |  |  |  |  |  |
| Clc1nc(Cl)c(-c2ccccc2)c(Cl)n1 | 4.38 µM | 10.7 µM | 9.36 µM |  | 9.08 µM | 5.34 µM | 36.1 µM | 23.3 µM | 3.33 µM | 9.45 µM |  |  |  |  |  |  |  |  |  |  |
| CN(C)c1ccc(C(=C2C=CC(=[N+](C)C)C=C2)c2ccc(N(C)C)cc2)cc1 | 0.879 µM and 0.773 µM | 1 µM | 0.324 µM and 0.214 µM | 1.17 µM and 1.01 µM | 1.23 µM and 1.01 µM | 1.23 µM | 1.2 µM and 2.48 µM | 0.86 µM and 0.718 µM | 0.598 µM and 1.39 µM |  | 0.261 µM | 0.162 µM |  | 0.253 µM | 0.284 µM | 0.0693 µM |  | 0.268 µM | 0.14 µM | 0.216 µM |
| CCCCCCCOc1c(OC)cc(C2CC(=O)Nc3c2c(C)nn3-c2nc3ccccc3[nH]2)cc1OC (stereo unspecified) |  | 7.3 µM | 3.78 µM | > 100 µM | 4.82 µM | 5.18 µM | > 100 µM | 7.55 µM | > 100 µM | > 100 µM | 2.54 µM | 1.93 µM | 2.91 µM | 3.21 µM | 1.63 µM | 2.11 µM | 4.18 µM | 2.77 µM | 4.01 µM |  |
| COc1ccc(-c2nn(-c3cccc(Cl)c3)cc2-c2cc(-c3ccccc3)nc(N)n2)cc1 | 31.8 µM | 26 µM | 28.4 µM | 15.8 µM | 26.5 µM |  | 13.7 µM | 29.2 µM | 13.2 µM |  | 8.06 µM | 7.88 µM |  | 4.58 µM | 10 µM |  | 2.7 µM | 13.5 µM | 2.69 µM | 8.95 µM |
| Cc1ccc(Sc2ccc(C)cc2[N+](=O)[O-])c([N+](=O)[O-])c1 | > 100 µM | > 100 µM | > 100 µM | > 100 µM | > 100 µM | > 100 µM | > 100 µM | > 100 µM | > 100 µM |  |  |  |  |  |  |  |  |  |  |  |
